Laboratory results reported in patent US20080214844A1, “Icaritin and desmethylicaritin as anti-cancer agents” (priority 2007, published 2008).
pEC50, pIC50: −log10 of the molar value.

Assays:
HCT-116 = assay: MTT cell viability assay, HCT-116; format: cell-based, human; conditions: Homo sapiens, 72 h, HCT-116, Colon, 3 days culture
Protocol: (§1) 26 cancer cell lines were grown in normal growth medium in the presence of different concentrations Icaritin or Desmethylicaritin. After culture for 3 days, the cell viability was then measured by an MTT assay. […] Some EC50s were lower than 10 uM for these two compounds. […] Whereas, normal human mammary gland epithelial cells (MCF10A) were not sensitive to Icaritin and Desmethylicaritin. These cells grew well when treated with these two compounds at a concentration of 50 uM.

PC3 = assay: MTT cell viability assay, PC3; format: cell-based, human; conditions: Homo sapiens, PC-3, 72 h, PC3, Prostate, 3 days culture
Protocol: as §1

IGROV1 = assay: MTT cell viability assay, IGROV1; format: cell-based, human; conditions: Homo sapiens, IGROV-1, 72 h, IGROV1, Ovary, 3 days culture
Protocol: as §1

CCL-247 = assay: MTT cell viability assay, CCL-247; format: cell-based, human; conditions: Homo sapiens, 72 h, CCL-247, Colon, 3 days culture
Protocol: as §1

Caki-1 = assay: MTT cell viability assay, Caki-1; format: cell-based, human; conditions: Homo sapiens, 72 h, Caki-1, Kidney, 3 days culture
Protocol: as §1

LoVo = assay: MTT cell viability assay, LoVo; format: cell-based, human; conditions: Homo sapiens, 72 h, Colon, 3 days culture
Protocol: as §1

[1] = tested on: LNCaP cells and MDA-MB-231 cells; assay: Synthesis of lipid classes in cancer cells; format: cell-based, human
Protocol: Icaritin and Desmethylicaritin decrease Lipogenesis in Prostate and Breast Cancer cells via inhibition of fatty acid synthase (FAS) Activity. Protein extracts from LNCaP cells, which had been ^14C-labeled with malonyl-CoA, were pretreated with these two compounds. A concentration of 0.5 μM Icaritin or Desmethylicaritin reduced the in vitro enzymatic FAS activity to less than 50%. […] Consistent with their FAS inhibitory effect, inhibition of lipogenesis by Icaritin and Desmethylicaritin affected the synthesis of phospholipids (including phosphatidylcholine, phosphatidylethanolamine, phosphatidylinositol, phosphatidylserine, and sphingomyelin) and of triglycerides in LNCaP cells and MDA-MB-231 cells. […] Cholesterol synthesis, however, accounts for less than 10% of the total lipogenic activity in LNCaP and MDA-MB-231 cancer cells, whereas ˜75 and 15% of the lipogenic activity in these cells represents phospholipid and triglyceride synthesis, respectively.

MDA-MB-435 = assay: MTT cell viability assay, MDA-MB-435; format: cell-based, human; conditions: Homo sapiens, 72 h, MDA-MB-435, Breast, 3 days culture
Protocol: as §1

LNCAP = assay: MTT cell viability assay, LNCAP; format: cell-based, human; conditions: Homo sapiens, 72 h, Prostate, 3 days culture
Protocol: as §1

SN12C = assay: MTT cell viability assay, SN12C; format: cell-based, human; conditions: Homo sapiens, 72 h, Kidney, 3 days culture
Protocol: as §1

human prostate cancer = assay: Human prostate cancer xenograft model; format: in vivo
From the text: ICA was extensively biotransformed and converted to at least three metabolites: Icariside II (molecule weight=514), Icaritin (molecule weight=368), and Desmethylicaritin (molecule weight=354). […] Icaritin and Desmethylicaritin have huge potentials to be developed as novel and broad anti cancer drugs.
FIG. 1. Response of Human Prostate tumor to treatment with Icaritin and Desmethyliciarityn.

SKOV3 = assay: MTT cell viability assay, SKOV3; format: cell-based, human; conditions: Homo sapiens, SK-OV-3, 72 h, SKOV3, Ovary, 3 days culture
Protocol: as §1

ACHN = assay: MTT cell viability assay, ACHN; format: cell-based, human; conditions: Homo sapiens, 72 h, Kidney, 3 days culture
Protocol: as §1

U-251 = assay: MTT cell viability assay, U-251; format: cell-based, human; conditions: Homo sapiens, 72 h, U-251, Glioblastoma, 3 days culture
Protocol: as §1

HMVEC tube formation = HMVEC tube formation on Matrigel; format: cell-based, human; conditions: 18 hours
Protocol: Endothelial cell tube formation in Matrigel is one measure of angiogenesis in vitro. The role of Icaritin in angiogenesis was assessed by determining the inhibition of HMVEC tube formation on Matrigel matrix plated onto 96-well plates. The HMVEC tube formation assay was performed as described previously. Briefly, 96-well plates were coated with 90 μL Matrigel (10 mg/mL, Collaborative Research) and incubated at 37° C. for 30 minutes to promote gelling. HMVECs (10,000 cells/sample) were resuspended in reduced growth medium (serum concentration 1% and 5 units/mL heparin) and added to each well with the indicated reagents in a final volume of 100 μL with different concentration of Icaritin. After 18 hours, the plates were fixed with Diff-Quik and at least four randomly selected fields per experimental condition were digitally recorded under bright-field illumination using a 10× objective. The mean additive length of all of the cords present in each optical field was measured using IPLab software and compared with controls using the Student's unpaired t test.

pIC50 (HCT-116): 5.19
pIC50 (PC3): 5.03
pIC50 (LoVo): 4.99
pIC50 (MDA-MB-435): 4.99
pIC50 (LNCAP): 5.28
pIC50 (SKOV3): 5.01
pIC50 (ACHN): 5.02
pIC50 (U-251): 5.15
pEC50 (HMVEC tube formation; Homo sapiens, HMVEC, read-out: EC50 to inhibit HMVEC tube formation): 5.24
SMILES: COc1ccc(-c2oc3c(CC=C(C)C)c(O)cc(O)c3c(=O)c2O)cc1 [Icaritin]
pIC50 (IGROV1): 4.96
pIC50 (CCL-247): 4.78
pIC50 (Caki-1): 5.15
synthesis of cholesterol ([1]; LNCaP and MDA-MB-231 cells): decreased
synthesis of phospholipids and of triglycerides ([1]; LNCaP cells and MDA-MB-231 cells): affected
pIC50 (SN12C): 4.80
human prostate cancer cell growth in vivo (human prostate cancer): strongly inhibiting
HMVEC tube formation (HMVEC tube formation; 10 uM): completely inhibited
